pIC50: −log10 of the molar value.

This experiment concerns the target T1, porcine pancreatic elastase (Sus scrofa, UniProt P00772).
T1 construct: gene CELA1; native mature enzyme from porcine pancreas (commercial, Sigma-Aldrich)
The experiment can be described thus: spectrophotometric, p-nitroanilide release, […] nm. The format is biochemical.

T1 sequence (P00772 27-266): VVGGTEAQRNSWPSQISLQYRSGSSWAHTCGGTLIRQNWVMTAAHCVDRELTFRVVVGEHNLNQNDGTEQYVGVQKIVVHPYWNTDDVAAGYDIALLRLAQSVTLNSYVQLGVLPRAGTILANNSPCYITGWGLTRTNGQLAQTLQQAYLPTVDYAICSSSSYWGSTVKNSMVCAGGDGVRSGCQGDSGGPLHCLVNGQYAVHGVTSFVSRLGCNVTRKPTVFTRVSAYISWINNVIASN

With `O=C(O[C@@H]1Cc2c(O)cc(O)cc2O[C@@H]1c1cc(O)c(O)c(O)c1)c1cc(O)c(O)c(O)c1` [EGCG], the pIC50 (as a rule, the negative decadic logarithm of the IC50, by convention in mol/L) is 5.03.
